PubChem BioAssay AID256 (DTP/NCI, 2004)
Values joined by “and” are separate entries in the source; they are usually repeats but may differ in a detail not shown here. Equal entries are not always repeated. Inconclusive results and toxic doses are left out. The calls were made as follows: active = survival T/C of 150% or more; inactive = T/C below 125% in these data.

Tested on: CD2F1 mice, L1210 leukemia ip, survival T/C
Experiment: NCI In Vivo Anticancer Drug Screen. Data for tumor model L1210 Leukemia (intraperitoneal) in CD2F1 (CDF1) mice
Settings: higher = longer survival
Outline: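 Each value reflects a quotient of treated over vehicle control outcomes in mice with a transplanted tumor.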

[1] = endpoint: mean survival time, dose: 100.0 mg/kg/injection, schedule: Q01DX009 (ip), vehicle: saline with Tween-80
[2] = endpoint: mean survival time, dose: 200.0 mg/kg/injection, schedule: Q01DX009 (ip), vehicle: saline with Tween-80
[3] = endpoint: mean survival time, dose: 50.0 mg/kg/injection, schedule: Q01DX009 (ip), vehicle: saline with Tween-80

Measured: T/C

C[C@]12C=CC(=O)C=C1CC[C@@H]1[C@@H]2C(=O)C[C@@]2(C)[C@H]1CC[C@]2(O)C(=O)CO
inactive: endpoint: mean survival time, dose: 6.25 mg/kg/injection, schedule: Q03HX008 (ip), vehicle: saline 98 % of control | endpoint: mean survival time, dose: 6.25 mg/kg/injection, schedule: Q03HX016 (ip), vehicle: saline 97 % of control | endpoint: mean survival time, dose: 6.25 mg/kg/injection, schedule: Q03HX024 (ip), vehicle: saline 100 % of control | endpoint: mean survival time, dose: 12.5 mg/kg/injection, schedule: Q03HX008 (ip), vehicle: saline 98 % of control | endpoint: mean survival time, dose: 12.5 mg/kg/injection, schedule: Q03HX016 (ip), vehicle: saline 98 % of control | endpoint: mean survival time, dose: 12.5 mg/kg/injection, schedule: Q03HX024 (ip), vehicle: saline 96 % of control | endpoint: mean survival time, dose: 25.0 mg/kg/injection, schedule: Q01DX009 (ip), vehicle: saline 102 % of control | endpoint: mean survival time, dose: 25.0 mg/kg/injection, schedule: Q03HX008 (ip), vehicle: saline 101 % of control | endpoint: mean survival time, dose: 25.0 mg/kg/injection, schedule: Q03HX016 (ip), vehicle: saline 104 % of control | endpoint: mean survival time, dose: 25.0 mg/kg/injection, schedule: Q03HX024 (ip), vehicle: saline 95 % of control | endpoint: mean survival time, dose: 50.0 mg/kg/injection, schedule: Q01DX001 (ip), vehicle: saline 93 % of control | endpoint: mean survival time, dose: 50.0 mg/kg/injection, schedule: Q01DX001 (oral), vehicle: saline 105 % of control | endpoint: mean survival time, dose: 50.0 mg/kg/injection, schedule: Q01DX009 (ip), vehicle: saline 102 % of control | endpoint: mean survival time, dose: 50.0 mg/kg/injection, schedule: Q01DX009 (oral), vehicle: saline 100 % of control | endpoint: mean survival time, dose: 50.0 mg/kg/injection, schedule: Q03HX008 (ip), vehicle: saline 105 % of control | endpoint: mean survival time, dose: 50.0 mg/kg/injection, schedule: Q03HX016 (ip), vehicle: saline 101 % of control | endpoint: mean survival time, dose: 50.0 mg/kg/injection, schedule: Q03HX024 (ip), vehicle: saline 101 % of control | endpoint: mean survival time, dose: 50.0 mg/kg/injection, schedule: Q04DX003 (ip), vehicle: saline 100 % of control | endpoint: mean survival time, dose: 50.0 mg/kg/injection, schedule: Q08DX002 (ip), vehicle: saline 90 % of control | endpoint: mean survival time, dose: 100.0 mg/kg/injection, schedule: Q01DX001 (ip), vehicle: saline 102 % of control | endpoint: mean survival time, dose: 100.0 mg/kg/injection, schedule: Q01DX001 (oral), vehicle: saline 103 % of control | endpoint: mean survival time, dose: 100.0 mg/kg/injection, schedule: Q01DX009 (ip), vehicle: saline 103 % of control | endpoint: mean survival time, dose: 100.0 mg/kg/injection, schedule: Q01DX009 (oral), vehicle: saline 96 % of control | endpoint: mean survival time, dose: 100.0 mg/kg/injection, schedule: Q01DX009 (sc), vehicle: steriod suspending solution 107 % of control | endpoint: mean survival time, dose: 100.0 mg/kg/injection, schedule: Q03HX008 (ip), vehicle: saline 105 % of control | endpoint: mean survival time, dose: 100.0 mg/kg/injection, schedule: Q03HX016 (ip), vehicle: saline 98 % of control | endpoint: mean survival time, dose: 100.0 mg/kg/injection, schedule: Q03HX024 (ip), vehicle: saline 101 % of control | endpoint: mean survival time, dose: 100.0 mg/kg/injection, schedule: Q04DX003 (ip), vehicle: saline 100 % of control | endpoint: mean survival time, dose: 100.0 mg/kg/injection, schedule: Q08DX002 (ip), vehicle: saline 91 % of control | endpoint: mean survival time, dose: 200.0 mg/kg/injection, schedule: Q01DX001 (ip), vehicle: saline 104 % of control | endpoint: mean survival time, dose: 200.0 mg/kg/injection, schedule: Q01DX001 (oral), vehicle: saline 104 % of control | endpoint: mean survival time, dose: 200.0 mg/kg/injection, schedule: Q01DX009 (ip), vehicle: saline 90 % of control | endpoint: mean survival time, dose: 200.0 mg/kg/injection, schedule: Q01DX009 (oral), vehicle: saline 98 % of control | endpoint: mean survival time, dose: 200.0 mg/kg/injection, schedule: Q01DX009 (sc), vehicle: steriod suspending solution 107 % of control | endpoint: mean survival time, dose: 200.0 mg/kg/injection, schedule: Q04DX003 (ip), vehicle: saline 107 % of control | endpoint: mean survival time, dose: 200.0 mg/kg/injection, schedule: Q08DX002 (ip), vehicle: saline 93 % of control | endpoint: mean survival time, dose: 400.0 mg/kg/injection, schedule: Q01DX001 (ip), vehicle: saline 107 % of control | endpoint: mean survival time, dose: 400.0 mg/kg/injection, schedule: Q01DX001 (oral), vehicle: saline 105 % of control | endpoint: mean survival time, dose: 400.0 mg/kg/injection, schedule: Q01DX009 (ip), vehicle: saline 103 % of control | endpoint: mean survival time, dose: 400.0 mg/kg/injection, schedule: Q01DX009 (oral), vehicle: saline 91 % of control | endpoint: mean survival time, dose: 400.0 mg/kg/injection, schedule: Q01DX009 (sc), vehicle: steriod suspending solution 104 % of control | endpoint: mean survival time, dose: 400.0 mg/kg/injection, schedule: Q04DX003 (ip), vehicle: saline 100 % of control | endpoint: mean survival time, dose: 400.0 mg/kg/injection, schedule: Q08DX002 (ip), vehicle: saline 89 % of control | endpoint: mean survival time, dose: 800.0 mg/kg/injection, schedule: Q01DX001 (ip), vehicle: saline 107 % of control | endpoint: mean survival time, dose: 800.0 mg/kg/injection, schedule: Q01DX001 (oral), vehicle: saline 104 % of control | endpoint: mean survival time, dose: 800.0 mg/kg/injection, schedule: Q01DX009 (oral), vehicle: saline 103 % of control | endpoint: mean survival time, dose: 800.0 mg/kg/injection, schedule: Q01DX009 (sc), vehicle: steriod suspending solution 98 % of control | endpoint: mean survival time, dose: 800.0 mg/kg/injection, schedule: Q04DX003 (ip), vehicle: saline 95 % of control | endpoint: mean survival time, dose: 800.0 mg/kg/injection, schedule: Q08DX002 (ip), vehicle: saline 94 % of control

C(=NC1CCCCC1)c1c[nH]c2ccccc12
inactive: [1] 87 % of control | endpoint: mean survival time, dose: 100.0 mg/kg/injection, schedule: Q04DX003 (ip), vehicle: saline with Tween-80 91 % of control | [2] 89 % of control | endpoint: mean survival time, dose: 200.0 mg/kg/injection, schedule: Q04DX003 (ip), vehicle: saline with Tween-80 91 % of control | endpoint: mean survival time, dose: 400.0 mg/kg/injection, schedule: Q04DX003 (ip), vehicle: saline with Tween-80 98 % of control

CC(C)OC(=O)CCl
inactive: endpoint: mean survival time, dose: 100.0 mg/kg/injection, schedule: Q01DX001 (ip), vehicle: saline with Tween-80 100 % of control | endpoint: mean survival time, dose: 200.0 mg/kg/injection, schedule: Q01DX001 (ip), vehicle: saline with Tween-80 100 % of control

CC(=O)NC1Cn2c3c(c(COC(N)=O)c2C1O)C(=O)C(Nc1ccccc1)=C(C)C3=O (centres undefined)
inactive: endpoint: mean survival time, dose: 2.08 mg/kg/injection, schedule: Q01DX001 (ip), vehicle: carboxymethylcellulose (CMC) 86 % of control | endpoint: mean survival time, dose: 3.1 mg/kg/injection, schedule: Q01DX001 (ip), vehicle: carboxymethylcellulose (CMC) 98 % of control | endpoint: mean survival time, dose: 4.7 mg/kg/injection, schedule: Q01DX001 (ip), vehicle: carboxymethylcellulose (CMC) 93 % of control

Cc1ccc(NC(=O)N2CCCCC2C)cc1[N+](=O)[O-] (centres undefined)
inactive: [3] 102 % of control | [1] 94 % of control | [2] 102 % of control

Nc1ccc(CCc2nc(N)[nH]c(=O)c2-c2ccc(Cl)cc2)cc1
inactive: endpoint: mean survival time, dose: 37.5 mg/kg/injection, schedule: Q01DX001 (ip), vehicle: saline with Tween-80 100 % of control | endpoint: mean survival time, dose: 75.0 mg/kg/injection, schedule: Q01DX001 (ip), vehicle: saline with Tween-80 91 % of control | endpoint: mean survival time, dose: 150.0 mg/kg/injection, schedule: Q01DX001 (ip), vehicle: saline with Tween-80 94 % of control

Cc1cc(N(C)C)c(C)cc1N=Nc1cc[n+]([O-])cc1
inactive: endpoint: mean survival time, dose: 56.3 mg/kg/injection, schedule: Q04DX002 (ip), vehicle: saline with Tween-80 96 % of control | endpoint: mean survival time, dose: 113.0 mg/kg/injection, schedule: Q04DX002 (ip), vehicle: saline with Tween-80 92 % of control

Cc1c(O)/c(=C\O)c2nc3c(=O)ccc(C(=O)NCCN(C)C)c3[nH]c2c1=O
inactive: endpoint: median survival time, dose: 12.5 mg/kg/injection, schedule: Q01DX005 (ip), vehicle: water 103 % of control and 110 % of control | endpoint: median survival time, dose: 18.0 mg/kg/injection, schedule: Q01DX005 (ip), vehicle: water 115 % of control | endpoint: median survival time, dose: 25.0 mg/kg/injection, schedule: Q01DX005 (ip), vehicle: water 114 % of control and 105 % of control

CCOC(=O)C1(C(=O)OCC)C(C)CC(O)N1C(=O)c1ccccc1[N+](=O)[O-] (centres undefined)
inactive: endpoint: mean survival time, dose: 100.0 mg/kg/injection, schedule: Q01DX001 (ip), vehicle: Klucel (hydroxypropylcellulose) (HPC) 100 % of control | endpoint: mean survival time, dose: 200.0 mg/kg/injection, schedule: Q01DX001 (ip), vehicle: Klucel (hydroxypropylcellulose) (HPC) 96 % of control | endpoint: mean survival time, dose: 400.0 mg/kg/injection, schedule: Q01DX001 (ip), vehicle: Klucel (hydroxypropylcellulose) (HPC) 104 % of control

CC(=Nc1ccccc1)C1=C(O)C(Cc2ccc(F)cc2)NC1=O (centres undefined)
inactive: endpoint: mean survival time, dose: 12.5 mg/kg/injection, schedule: Q04DX002 (ip), vehicle: saline with Tween-80 103 % of control | endpoint: mean survival time, dose: 25.0 mg/kg/injection, schedule: Q04DX002 (ip), vehicle: saline with Tween-80 100 % of control | endpoint: mean survival time, dose: 50.0 mg/kg/injection, schedule: Q04DX002 (ip), vehicle: saline with Tween-80 100 % of control

O=c1oc2ccccc2c(O)c1-c1cccc2ccccc12
inactive: endpoint: mean survival time, dose: 12.5 mg/kg/injection, schedule: Q01DX009 (ip), vehicle: saline with Tween-80 91 % of control | endpoint: mean survival time, dose: 25.0 mg/kg/injection, schedule: Q01DX009 (ip), vehicle: saline with Tween-80 103 % of control | [3] 100 % of control
